Measured values published in patent US6844020B2, “Solutions of carotenoids for use in foods and personal care products” (Kemin Foods, L.C., priority 2002, dated 2005).
Where “and” joins values, the source holds several entries; their conditions need not be identical. Equal entries are not always repeated. Where two headings read alike, the source gives them in different places.

Key:
[1] = Astaxanthin solubility in essential oils; type: physicochemical
Protocol: (§1) Astaxanthin was dissolved in each oil until visibly saturated. The sample was then blanketed with argon and sonicated for ten minutes. When the sample was completely saturated, the solution was transferred to a micro centrifuge tube and centrifuged at 14,000 rpm for 10 minutes. The clarified oil was then analyzed for astaxanthin content. The method for analyzing lutein crystals was used to analyze astaxanthin, however, a few modifications were made. First, methylene chloride was substituted for […] when dissolving the samples. […] When determining total carotenoids, the absorbance was measured at 470 nm rather than 446 nm. [formula] [formula] [formula] Canthaxanthin in Essentials Oils

[2] = Beta-carotene solubility in essential oils; type: physicochemical
Protocol: Beta-carotene was dissolved in each oil until visibly saturated. The sample was then blanketed with argon and sonicated for ten minutes. When the sample was completely saturated, the solution was transferred to a micro centrifuge tube and centrifuged at 14,000 rpm for 10 minutes. The clarified oil was then analyzed for beta-carotene content. The method for analyzing lutein crystals, with a few modifications, was used to analyze beta-carotene. First, methylene chloride was substituted for […] when dissolving the samples. Second, when determining total carotenoids, the absorbance was measured at 453 nm rather than 446 nm. [formula] [formula] [formula]
% Beta Carotene=% Carotenoids*(% Total HPLC area of Beta Carotene/100)

[3] = cited from earlier work
[4] = type: physicochemical
Protocol: as §1, with “Canthaxanthin” for “Astaxanthin”, “microcentrifuge” for “micro centrifuge”, “canthaxanthin” for “astaxanthin”, “canthaxanthin,” for “astaxanthin,”, “466” for “470”, “Results and Discussion” for “[formula] Canthaxanthin in Essentials Oils”

[5] = Zeaxanthin solubility in essential oils; type: physicochemical
Protocol: as §1, with “Zeaxanthin” for “Astaxanthin”, “zeaxanthin” for “astaxanthin”, “zeaxanthin,” for “astaxanthin,”, “450” for “470”, “[formula]” for “[formula] Canthaxanthin in Essentials Oils”
% Zeaxanthin=% Carotenoids*(% Total HPLC area of zeaxanthin/100)

[6] = consumption of lutein and zeaxanthin; Seddon et al., 1994; cited from earlier work
[7] = in Carvacrol (clear oil), 282-197, lot 13403CI
[8] = in Spearmint oil, 05-6250-11, lot SP43-0208
[9] = in Thyme oil, White, 05-6275-01, lot TLC11-T049
[10] = in Bay oil, 50-6025-01, lot BA41-0484
[11] = in Cornmint, redistilled oil, 50-6100-01, lot CR43-0155
[12] = in Peppermint, Yakima redistilled oil, 50-6225-21, lot PY43-0157
[13] = in Spearmint, redistilled oil, 50-6250-11, lot 39SR-0163
[14] = in Tea Tree oil, 50-6270-01, lot TX43-0146
[15] = in Thyme, Pure oil, 50-6275-04, lot TP41-0053
[16] = in Thyme, Red oil, 50-6275-02, lot TR43-0158
[17] = in Thyme, White oil, 50-6275-01, lot TLC11-T477
[18] = in Thyme, White (NOW) oil, 7635

SMILES: CC1=C(/C=C/C(C)=C/C=C/C(C)=C/C=C/C=C(C)/C=C/C=C(C)/C=C/C2=C(C)C(=O)[C@@H](O)CC2(C)C)C(C)(C)C[C@H](O)C1=O [Astaxanthin, astaxanthin]
- % Astaxanthin by HPLC [1, 7]: 0.2420%
- % Astaxanthin by HPLC ([1]; in Carvacrol (clear oil), 282-197, lot 13403CI, listed as astaxanthin): ~0.24%
- % Astaxanthin by HPLC [1, 8]: 0.0301%
- % Astaxanthin by HPLC [1, 9]: 0.1876%
- times less soluble than lutein ([1]; in spearmint oil): 33 times
- times less soluble than lutein ([1]; in white thyme oil): 16 times

SMILES: CC1=C(/C=C/C(C)=C/C=C/C(C)=C/C=C/C=C(C)/C=C/C=C(C)/C=C/C2=C(C)CCCC2(C)C)C(C)(C)CCC1 [Beta-carotene, β-carotene]
- % Beta-Carotene [2, 10]: 0.16% and 0.163%
- % Beta-Carotene [2, 11]: 0.252%
- % Beta-Carotene [2, 12]: 0.263%
- % Beta-Carotene [2, 13]: 0.532%
- % Beta-Carotene [2, 14]: 0.427%
- % Beta-Carotene [2, 15]: 0.245%
- % Beta-Carotene [2, 16]: 0.267%
- % Beta-Carotene [2, 17]: 0.273%
- reported solubility ([3]; in "fats and oils"): 0.05-0.08%

SMILES: CC1=C(/C=C/C(C)=C/C=C/C(C)=C/C=C/C=C(C)/C=C/C=C(C)/C=C/C2=C(C)C(=O)CCC2(C)C)C(C)(C)CCC1=O [Canthaxanthin, canthaxanthin]
- % Canthaxanthin by HPLC [4, 7]: 0.0020%
- % Canthaxanthin by HPLC [4, 8]: 0.0028%
- % Canthaxanthin by HPLC [4, 9]: 0.0036%

SMILES: CC1=C(/C=C/C(C)=C/C=C/C(C)=C/C=C/C=C(C)/C=C/C=C(C)/C=C/C2=C(C)C[C@@H](O)CC2(C)C)C(C)(C)C[C@H](O)C1 [Zeaxanthin, zeaxanthin]
- % Carotenoids [5, 10]: 0.281%
- % Zeaxanthin [5, 10]: 0.276%
- % Carotenoids [5, 11]: 0.403%
- % Zeaxanthin [5, 11]: 0.397%
- % Carotenoids [5, 12]: 0.452%
- % Zeaxanthin [5, 12]: 0.446%
- % Carotenoids [5, 13]: 0.374%
- % Zeaxanthin [5, 13]: 0.369%
- % Carotenoids ([5]; in Tea Tree (NOW) oil, 7625): 0.398%
- % Zeaxanthin ([5]; in Tea Tree (NOW) oil, 7625): 0.394%
- % Carotenoids [5, 14]: 0.364%
- % Zeaxanthin [5, 14]: 0.361%
- % Carotenoids [5, 15]: 0.920%
- % Zeaxanthin [5, 15]: 0.916%
- % Carotenoids [5, 16]: 1.063%
- % Zeaxanthin [5, 16]: 1.059%
- % Carotenoids [5, 18]: 0.784%
- % Zeaxanthin [5, 18]: 0.782%
- % Carotenoids [5, 17]: 1.049%
- % Zeaxanthin [5, 17]: 1.043%
- zeaxanthin solubility ([5]; in all of the oils except the thyme oils): less than 1%
- zeaxanthin solubility ([5]; in thyme oil): ~1%
- reduction in age-related macular degeneration [6]: 57%
- reported solubility ([3]; in corn oil): 0.004%
